The source made the active and inactive calls. The rule behind the calls is not given here.
Key:
[1] = system: NCI-H1975; test: Antiproliferative activity against human NCI-H1975 cells overexpressing c-Met and EGFR assessed as reduction in cell viability incubated for 72 hrs by MTT assay; type: functional, cell-based; details: NCI-H1975, 72 h
[2] = system: A549; test: Induction of apoptosis in human A549 cells overexpressing c-MET assessed as increase in green fluorescence intensity incubated for 24 hrs by JC-1 staining based fluorescence inverted microscopic analysis; type: functional, cell-based; details: dose 1-2.5 µM
[3] = system: A549; test: Induction in apoptosis in human A549 cells overexpressing c-MET assessed as viable cells at 1 uM incubated for 24 hrs by Annexin V-FITC/Propidium Iodide staining based flow cytometry analysis (reference value: 81.92 %); type: functional; details: read-out: Activity
[4] = system: A549; test: Induction in apoptosis in human A549 cells overexpressing c-MET assessed as early apoptotic cells at 1 uM incubated for 24 hrs by Annexin V-FITC/Propidium Iodide staining based flow cytometry analysis (reference value: 7.27 %); type: functional
[5] = system: A549; test: Induction in apoptosis in human A549 cells overexpressing c-MET assessed as viable cells at 2.5 uM incubated for 24 hrs by Annexin V-FITC/Propidium Iodide staining based flow cytometry analysis (reference value: 81.92 %; type: functional; details: read-out: Activity
[6] = system: A549; test: Induction in apoptosis in human A549 cells overexpressing c-MET assessed as early apoptotic cells at 2.5 uM incubated for 24 hrs by Annexin V-FITC/Propidium Iodide staining based flow cytometry analysis (reference value: 7.27 %); type: functional
[7] = system: NCI-H1975; test: Induction in apoptosis in human NCI-H1975 cells assessed as early apoptotic cells at 1 uM incubated for 24 hrs by Annexin V-FITC/Propidium Iodide staining based flow cytometry analysis (reference value: 2.54 %); type: functional
[8] = system: NCI-H1975; test: Induction in apoptosis in human NCI-H1975 cells assessed as viable cells at 2.5 uM incubated for 24 hrs by Annexin V-FITC/Propidium Iodide staining based flow cytometry analysis (reference value: 91.58 %); type: functional; details: read-out: Activity
[9] = system: NCI-H1975; test: Induction in apoptosis in human NCI-H1975 cells assessed as late apoptotic cells at 2.5 uM incubated for 24 hrs by Annexin V-FITC/Propidium Iodide staining based flow cytometry analysis (reference value: 4.46 %); type: functional
[10] = system: NCI-H1975; test: Induction in apoptosis in human NCI-H1975 cells assessed as necrotic cells at 2.5 uM incubated for 24 hrs by Annexin V-FITC/Propidium Iodide staining based flow cytometry analysis (reference value: 1.42 %); type: functional
[11] = system: L02; test: Induction in apoptosis in human L02 cells assessed as early apoptotic cells at 1 uM incubated for 24 hrs by Annexin V-FITC/Propidium Iodide staining based flow cytometry analysis (reference value: 0.26 %); type: toxicity, cell-based; details: l02, 24 h
[12] = system: L02; test: Induction in apoptosis in human L02 cells assessed as late apoptotic cells at 1 uM incubated for 24 hrs by Annexin V-FITC/Propidium Iodide staining based flow cytometry analysis (reference value: 0.36 %); type: toxicity, cell-based; details: l02, 24 h
[13] = Induction in apoptosis in human L02 cells assessed as viable cells at 2.5 uM incubated for 24 hrs by Annexin V-FITC/Propidium Iodide staining based flow cytometry analysis (reference value: 92.75 %); type: toxicity, cell-based; details: read-out: Activity
[14] = system: L02; test: Induction in apoptosis in human L02 cells assessed as necrotic cells at 2.5 uM incubated for 24 hrs by Annexin V-FITC/Propidium Iodide staining based flow cytometry analysis (reference value: 6.63 %); type: toxicity, cell-based; details: l02, 24 h
[15] = system: A549; test: Induction of cell cycle arrest in human A549 cells overexpressing c-MET assessed as accumulation of cells at G1/G0 phase at 1 uM incubated for 24 hrs by RNase A/propidium iodide staining based flow cytometric analysis (reference value: 49.24 %); type: functional
[16] = system: NCI-H1975; test: Antimigratory activity against EGF-induced cell migration in serum starved human NCI-H1975 cells assessed as increase in width of artificial gap incubated for 24 hrs by wound healing assay; type: functional, cell-based; details: dose 1-2.5 µM
[17] = system: A549; test: Downregulation of phosphorylated EGFR protein expression level human A549 cells overexpressing c-MET incubated for 24 hrs by Western blotting analysis; type: functional, cell-based; details: dose 1-10 µM
[18] = target: Vascular endothelial growth factor receptor 1 (Homo sapiens) (UniProt P17948); test: Inhibition of FLT1 (unknown origin) at 10 uM
Sequence of Vascular endothelial growth factor receptor 1 (Homo sapiens) (P17948 whole entry): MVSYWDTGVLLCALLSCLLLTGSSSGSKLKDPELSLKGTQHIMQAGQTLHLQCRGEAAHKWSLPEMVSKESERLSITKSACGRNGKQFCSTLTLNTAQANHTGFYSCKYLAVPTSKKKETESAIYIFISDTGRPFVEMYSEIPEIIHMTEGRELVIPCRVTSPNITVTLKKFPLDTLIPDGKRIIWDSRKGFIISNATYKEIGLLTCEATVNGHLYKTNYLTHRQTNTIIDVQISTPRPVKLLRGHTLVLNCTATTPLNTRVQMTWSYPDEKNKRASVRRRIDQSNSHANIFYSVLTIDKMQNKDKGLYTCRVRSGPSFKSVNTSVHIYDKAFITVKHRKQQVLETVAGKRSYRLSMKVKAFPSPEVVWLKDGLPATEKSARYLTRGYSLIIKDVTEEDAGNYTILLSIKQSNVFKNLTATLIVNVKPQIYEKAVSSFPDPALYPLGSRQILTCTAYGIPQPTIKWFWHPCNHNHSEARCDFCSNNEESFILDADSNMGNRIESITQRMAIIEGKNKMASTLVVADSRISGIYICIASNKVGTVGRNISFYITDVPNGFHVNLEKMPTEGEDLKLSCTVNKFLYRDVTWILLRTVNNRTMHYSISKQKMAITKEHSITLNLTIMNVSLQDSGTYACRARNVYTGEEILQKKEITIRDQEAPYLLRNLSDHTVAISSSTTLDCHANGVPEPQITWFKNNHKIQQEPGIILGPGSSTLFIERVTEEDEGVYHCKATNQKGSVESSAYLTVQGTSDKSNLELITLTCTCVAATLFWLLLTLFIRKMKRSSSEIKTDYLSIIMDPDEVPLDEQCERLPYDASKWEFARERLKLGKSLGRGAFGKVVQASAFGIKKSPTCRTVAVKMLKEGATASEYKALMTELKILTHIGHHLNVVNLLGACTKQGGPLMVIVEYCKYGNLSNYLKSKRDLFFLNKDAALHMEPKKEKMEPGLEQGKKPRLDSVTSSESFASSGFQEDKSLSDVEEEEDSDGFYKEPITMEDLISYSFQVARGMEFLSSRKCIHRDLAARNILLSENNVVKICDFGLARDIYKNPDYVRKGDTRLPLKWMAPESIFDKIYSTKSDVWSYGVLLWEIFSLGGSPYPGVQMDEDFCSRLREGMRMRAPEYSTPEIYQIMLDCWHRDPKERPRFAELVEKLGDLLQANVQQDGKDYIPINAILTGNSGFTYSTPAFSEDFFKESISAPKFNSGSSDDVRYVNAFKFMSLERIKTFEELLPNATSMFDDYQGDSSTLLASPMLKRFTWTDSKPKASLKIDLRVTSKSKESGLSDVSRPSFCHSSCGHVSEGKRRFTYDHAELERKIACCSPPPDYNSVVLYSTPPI

[19] = target: Serine/threonine-protein kinase Nek2 (Homo sapiens) (UniProt P51955); test: Inhibition of NEK2 (unknown origin) at 10 uM
Sequence of Serine/threonine-protein kinase Nek2 (Homo sapiens) (P51955 whole entry): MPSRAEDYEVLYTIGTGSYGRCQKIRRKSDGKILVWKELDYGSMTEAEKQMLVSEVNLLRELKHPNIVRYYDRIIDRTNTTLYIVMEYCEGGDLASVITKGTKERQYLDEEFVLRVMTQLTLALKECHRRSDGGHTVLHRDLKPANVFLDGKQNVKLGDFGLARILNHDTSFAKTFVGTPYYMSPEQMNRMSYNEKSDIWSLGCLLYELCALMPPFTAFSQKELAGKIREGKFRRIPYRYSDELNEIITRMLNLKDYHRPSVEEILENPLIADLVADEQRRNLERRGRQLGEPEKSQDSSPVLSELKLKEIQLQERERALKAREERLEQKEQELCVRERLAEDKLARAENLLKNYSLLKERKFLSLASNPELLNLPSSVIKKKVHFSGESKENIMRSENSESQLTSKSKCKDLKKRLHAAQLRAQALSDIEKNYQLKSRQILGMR

[20] = target: Fibroblast growth factor receptor 2 (Homo sapiens) (UniProt P21802); test: Inhibition of FGFR2 (unknown origin) at 10 uM
Sequence of Fibroblast growth factor receptor 2 (Homo sapiens) (P21802 22-821 limits assumed): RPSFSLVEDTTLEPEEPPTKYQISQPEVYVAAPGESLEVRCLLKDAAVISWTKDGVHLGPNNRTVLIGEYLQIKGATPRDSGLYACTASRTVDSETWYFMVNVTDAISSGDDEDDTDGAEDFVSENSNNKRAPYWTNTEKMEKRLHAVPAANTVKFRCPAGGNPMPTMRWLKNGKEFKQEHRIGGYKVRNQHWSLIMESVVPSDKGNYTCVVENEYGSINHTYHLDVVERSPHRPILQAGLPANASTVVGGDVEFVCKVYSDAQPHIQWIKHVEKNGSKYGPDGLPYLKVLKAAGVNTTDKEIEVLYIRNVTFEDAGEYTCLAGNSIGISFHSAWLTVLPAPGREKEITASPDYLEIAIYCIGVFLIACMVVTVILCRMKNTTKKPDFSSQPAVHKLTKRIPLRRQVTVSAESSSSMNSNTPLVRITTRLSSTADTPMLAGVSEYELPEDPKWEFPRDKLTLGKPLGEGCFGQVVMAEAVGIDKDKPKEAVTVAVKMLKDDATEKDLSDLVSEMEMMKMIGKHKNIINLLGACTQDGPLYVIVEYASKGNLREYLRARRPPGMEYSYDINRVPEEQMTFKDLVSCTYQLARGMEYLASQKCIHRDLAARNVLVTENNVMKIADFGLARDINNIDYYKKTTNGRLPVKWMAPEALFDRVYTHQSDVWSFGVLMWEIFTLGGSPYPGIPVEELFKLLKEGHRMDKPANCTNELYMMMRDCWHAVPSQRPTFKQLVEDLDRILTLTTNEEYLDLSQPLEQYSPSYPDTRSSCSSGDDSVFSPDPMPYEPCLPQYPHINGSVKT

[21] = target: Mitogen-activated protein kinase 1 (Homo sapiens) (UniProt P28482); test: Inhibition of MAPK1 (unknown origin) at 10 uM
Sequence of Mitogen-activated protein kinase 1 (Homo sapiens) (P28482 whole entry): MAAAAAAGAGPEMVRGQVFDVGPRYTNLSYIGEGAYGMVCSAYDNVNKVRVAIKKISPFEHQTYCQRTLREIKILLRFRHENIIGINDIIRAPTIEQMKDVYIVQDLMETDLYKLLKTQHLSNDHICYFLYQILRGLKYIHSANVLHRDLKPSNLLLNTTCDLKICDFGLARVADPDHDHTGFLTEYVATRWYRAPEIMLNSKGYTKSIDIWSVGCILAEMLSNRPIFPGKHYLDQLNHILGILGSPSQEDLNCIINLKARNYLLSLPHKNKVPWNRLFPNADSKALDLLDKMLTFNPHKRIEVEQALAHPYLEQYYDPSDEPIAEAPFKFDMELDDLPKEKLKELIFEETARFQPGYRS

[22] = Hepatotoxicity in KM mouse assessed as effect on aspartate aminotransferase level at 100 mg/kg, IG qd administered for 7 days by automatic biochemical analyzer; type: toxicity, organism-based; details: in vivo, po, 168 h, time 7 day
[23] = Hepatotoxicity in KM mouse assessed as effect on alanine aminotransferase level at 100 mg/kg, IG qd administered for 7 days by automatic biochemical analyzer; type: toxicity, organism-based; details: in vivo, po, 168 h, time 7 day
[24] = Hepatotoxicity in KM mouse assessed as alkaline phosphatase level at 100 mg/kg, IG qd administered for 7 days by automatic biochemical analyzer; type: toxicity, organism-based; details: in vivo, po, 168 h, time 7 day
[25] = Nephrotoxicity in KM mouse assessed as effect on urea level at 100 mg/kg, IG qd administered for 7 days by automatic biochemical analyzer; type: toxicity, organism-based; details: in vivo, po, 168 h, time 7 day
[26] = Nephrotoxicity in KM mouse assessed as effect on creatinine level at 100 mg/kg, IG qd administered for 7 days by automatic biochemical analyzer; type: toxicity, organism-based; details: in vivo, po, 168 h, time 7 day
[27] = Acute toxicity in KM mouse assessed as effect on glucose level at 100 mg/kg, IG qd administered for 7 days by automatic biochemical analyzer; type: organism-based; details: in vivo, po, 168 h, time 7 day
[28] = system: A549; test: Antitumor activity against human A549 cells overexpressing c-MET xenografted in BALB/c nude mouse assessed as reduction in tumor volume at 60 mg/kg, IG qod measured for 24 days; type: functional, organism-based; details: time 24.0 day
[29] = system: A549; test: Antitumor activity against human A549 cells overexpressing c-MET xenografted in BALB/c nude mouse assessed as tumor growth inhibition at 40 mg/kg, IG qod measured for 24 days relative to control; type: functional; details: A549, po, 576 h, time 24 day, read-out: TGI
[30] = system: A549; test: Antitumor activity against human A549 cells overexpressing c-MET xenografted in BALB/c nude mouse assessed as tumor growth inhibition at 60 mg/kg, IG qod measured for 24 days relative to control; type: functional; details: A549, po, 576 h, time 24 day, read-out: TGI
[31] = Toxicity in BALB/c nude mouse xenografted with human A549 cells overexpressing c-MET assessed as change in body weight at 40 to 60 mg/kg, IG and measured for 24 days; type: organism-based; details: in vivo, po, 576 h, dose 40-60 mg/kg, time 24 day
[32] = system: NCI-H1975; test: Inhibition of colony formation in human NCI-H1975 cells at 2 uM preincubated for 48 hrs followed by media replacement for every 2 days for 14 days by crystal violet staining based microscopic analysis relative to control; type: functional

C=CC(=O)Nc1cc2c(Oc3ccc(NC(=O)n4c(=O)c(-c5ccccc5)c(C)n4C)cc3F)cccc2cc1OC
IC50 [1]: 1130 nM
Activity [2]: Dose-Dependent Effect
viability at 1 µM [3]: 70.9%
Activity [4]: 10.4%
viability at 2.5 µM [5]: 60.1%
Activity [6]: 10.44%
Activity [7]: 2.77%
viability at 2.5 µM [8]: 85.5%
Activity [9]: 8.17%
Activity [10]: 2.49%
Activity [11]: 0.21%
Activity [12]: 0.28%
viability at 24 h, 2.5 µM [13]: 95%
Activity [14]: 4.53%
Activity [15]: 53.03%
Activity [16]: Dose-Dependent Effect
Activity [17]: Dose-Dependent Effect
inhibition [18]: Active
inhibition [19]: inactive
inhibition [20]: inactive
inhibition [21]: inactive
Activity [22]: Non-Toxic
Activity [23]: Non-Toxic
Activity [24]: > 60 U/L
Activity [25]: Non-Toxic
Activity [26]: Non-Toxic
Activity [27]: Non-Toxic
Activity [28]: Active
inhibition in vivo at 40 mg/kg [29]: 25%
inhibition in vivo at 60 mg/kg [30]: 55.3%
Activity [31]: Non-Toxic
inhibition at 2 µM [32]: ~100%

Reference: ChEMBL document CHEMBL5537122, “Design, synthesis, and biological evaluation of 4-(2-fluorophenoxy)-7-methoxyquinazoline derivatives as dual EGFR/c-Met inhibitors for the treatment of NSCLC” (Eur J Med Chem, 2024)
